Test results published in PMC12444472, “BCI inhibits MKP3 by targeting the kinase-binding domain and disrupting ERK2 interaction” (The Journal of Biological Chemistry, 2025).

Tests used:
MKP3 = conditions: basal, without ERK2; cited from earlier work
[1] = biological target: T1, Full-length human MKP3, MKP3(1-381) (human) (UniProt Q16828)
T1 sequence: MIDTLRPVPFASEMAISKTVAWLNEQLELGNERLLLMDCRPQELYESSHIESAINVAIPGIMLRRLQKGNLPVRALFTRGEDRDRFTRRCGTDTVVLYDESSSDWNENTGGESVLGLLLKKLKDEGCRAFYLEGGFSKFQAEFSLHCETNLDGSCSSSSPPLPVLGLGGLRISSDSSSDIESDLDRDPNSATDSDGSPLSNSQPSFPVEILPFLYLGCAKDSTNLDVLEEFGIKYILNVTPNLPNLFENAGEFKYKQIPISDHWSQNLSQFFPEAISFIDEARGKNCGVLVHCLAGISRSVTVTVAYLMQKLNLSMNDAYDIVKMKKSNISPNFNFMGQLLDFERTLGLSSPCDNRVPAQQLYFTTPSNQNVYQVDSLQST

Row | time of pERK2 dephosphorylation by MKP3^FL with BCI at a concentration 50 times that of pERK2 [1] | Compound | effect on MKP3's basal activity toward OMFP (MKP3)
1 | – | O=C1C(SCCO)=C(SCCO)C(=O)c2ccccc21 [NSC95397] | inhibited
2 | > 20 fold | Phosphorylated ERK2 (bis-pERK2, phosphorylated at T183 and Y185) (from UniProt P63085 1-358) (enzyme) | –
